pEC50: −log10 of the molar value. Like-named read-outs stand apart in the source and are kept apart here.
Target: T1, human APJ receptor (Homo sapiens, UniProt P35414)
T1 construct: expressed in transfected cells; host or cells: HEK293
T1 sequence (P35414 1-380): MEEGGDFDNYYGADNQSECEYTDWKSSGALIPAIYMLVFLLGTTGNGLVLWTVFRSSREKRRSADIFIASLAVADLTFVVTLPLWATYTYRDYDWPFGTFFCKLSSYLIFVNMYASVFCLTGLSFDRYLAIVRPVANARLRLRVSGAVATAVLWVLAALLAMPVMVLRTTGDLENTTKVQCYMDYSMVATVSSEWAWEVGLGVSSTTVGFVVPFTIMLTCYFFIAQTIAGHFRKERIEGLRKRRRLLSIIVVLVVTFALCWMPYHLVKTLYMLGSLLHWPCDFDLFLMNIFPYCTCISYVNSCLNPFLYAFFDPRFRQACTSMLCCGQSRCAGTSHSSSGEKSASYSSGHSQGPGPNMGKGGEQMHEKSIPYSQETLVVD
Assay: Intracellular cAMP Accumulation Assay (APJ hcAMP, HTRF)
Type: cell-based
Method in brief: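 Stably transfected HEK293 cells (5,000/well) incubated 30 min at room temperature with serially diluted compound, […] and 2 μM forskolin. cAMP measured by HTRF after 60 min with detection reagents, quantified against a cAMP standard curve; EC50 from variable-slope sigmoidal fit of inhibition of forskolin-stimulated cAMP.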

[1] = human APJ, cAMP accumulation, potency range class, read-out: hAPJ cAMP EC50 Potency range
[2] = read-out: hAPJ cAMP EC50 Potency range, human APJ, intracellular cAMP accumulation
[3] = human APJ, intracellular cAMP accumulation, read-out: hAPJ cAMP EC50 Potency range
[4] = read-out: hAPJ cAMP EC50 Potency range

Question: With `CCCc1nc(O)c(C(=O)N2CC[C@H](c3ccccc3)C2)c(=O)n1[C@@H](COC)c1ccccc1` [Example 329, 6-hydroxy-3-[(1R)-2-methoxy-1-phenylethyl]-5-[(3R)-3-phenylpyrrolidine-1-carbonyl]-2-propyl-3,4-dihydropyrimidin-4-one] as the molecule, how does the pEC50 [1] read?
Answer: 7.00 to 8.00

Question: `COc1ccccc1C1CCN(C(=O)c2c(O)n(-c3c(OC)cccc3OC)c(-c3cncc(C)c3)nc2=O)C1` (stereo not shown) [Example 7, 1-(2,6-dimethoxyphenyl)-6-hydroxy-5-(3-(2-methoxyphenyl)pyrrolidine-1-carbonyl)-2-(5-methylpyridin-3-yl)pyrimidin-4(1H)-one] was tested. Which pEC50 (HEK293 cells stably expressing human APJ receptor, inhibition of forskolin-mediated cAMP production, read-out: Human APJ cAMP EC50 potency range) did it give?
Answer: 8.00 to 11.00

Question: `CCc1cccc(CC)c1-n1c(-c2csc(C)n2)nc(=O)c(C(=O)N2CCC(c3ncc(Cl)cc3F)C2)c1O` (single isomer, unassigned) [Example 296, 5-[3-(5-chloro-3-fluoropyridin-2-yl)pyrrolidine-1-carbonyl]-1-(2,6-diethylphenyl)-6-hydroxy-2-(2-methyl-1,3-thiazol-4-yl)-1,4-dihydropyrimidin-4-one] was tested. Which pEC50 [1] did it give?
Answer: 8.00 to 11.00

Question: With `CCCCc1nc(=O)c(C(=O)N2CCC(c3cccnc3)C2)c(O)n1-c1c(OC)cccc1OC` (single isomer, unassigned) [Example 76, 2-butyl-1-(2,6-dimethoxyphenyl)-6-hydroxy-5-[3-(pyridin-3-yl)pyrrolidine-1-carbonyl]-1,4-dihydropyrimidin-4-one] as the molecule, how does the pEC50 [2] read?
Answer: 8.00 to 11.00

Question: With `CC[C@@H](c1ccccc1)n1c(-c2nc(C)cs2)nc(=O)c(C(=O)N2CCC(c3ccccc3F)C2)c1O` (single isomer, unassigned) [Example 324] as the molecule, how does the pEC50 [1] read?
Answer: 8.00 to 11.00

Question: `CCCCc1nc(=O)c(C(=O)N2CCC(c3cccc(F)c3)C2)c(O)n1-c1c(OC)cccc1OC` (single isomer, unassigned) [Example 80, 2-butyl-1-(2,6-dimethoxyphenyl)-5-[3-(3-fluorophenyl)pyrrolidine-1-carbonyl]-6-hydroxy-1,4-dihydropyrimidin-4-one] was tested. Which pEC50 [3] did it give?
Answer: 8.00 to 11.00

Question: With `CC[C@@H](c1cc(F)cc(F)c1)n1c(-c2cnn(C)c2)nc(=O)c(C(=O)N2CCC(c3ccccc3F)C2)c1O` (single isomer, unassigned) [Example 196] as the molecule, how does the pEC50 [3] read?
Answer: 8.00 to 11.00

Question: `CCCCc1nc(=O)c(C(=O)N2CCC(c3cccc(F)c3)C2)c(O)n1-c1c(OC)cccc1OC` (single isomer, unassigned) [Example 78, 2-butyl-1-(2,6-dimethoxyphenyl)-5-[3-(3-fluorophenyl)pyrrolidine-1-carbonyl]-6-hydroxy-1,4-dihydropyrimidin-4-one] was tested. Which pEC50 [3] did it give?
Answer: 8.00 to 11.00

Question: `COc1cccc(OC)c1-n1c(COC2CC2)nc(=O)c(C(=O)N2CCC(c3ccccc3C)C2)c1O` (single isomer, unassigned) [Example 19, 2-(cyclopropoxymethyl)-1-(2,6-dimethoxyphenyl)-6-hydroxy-5-(3-(o-tolyl)pyrrolidine-1-carbonyl)pyrimidin-4(1H)-one] was tested. Which pEC50 [3] did it give?
Answer: 8.00 to 11.00

Question: How did the pEC50 [4] turn out when `CCCCc1nc(=O)c(C(=O)N2CCC(Oc3cccc(F)c3Cl)CC2)c(O)n1-c1c(OC)cccc1OC` [Example 383, 2-butyl-5-(4-(2-chloro-3-fluorophenoxy)piperidine-1-carbonyl)-1-(2,6-dimethoxyphenyl)-6-hydroxypyrimidin-4(1H)-one] was run?
Answer: 8.00 to 11.00

Question: `COc1cccc(OC)c1-n1c(-c2cnn(C)c2)nc(=O)c(C(=O)N2CCC(c3c(F)cccc3F)C2)c1O` (single isomer, unassigned) [Example 249, 5-[3-(2,6-difluorophenyl)pyrrolidine-1-carbonyl]-1-(2,6-dimethoxyphenyl)-6-hydroxy-2-(1-methyl-1H-pyrazol-4-yl)-1,4-dihydropyrimidin-4-one] was tested. Which pEC50 [1] did it give?
Answer: 8.00 to 11.00

Question: With `CCCCc1nc(=O)c(C(=O)N2CCC(c3cccc(F)c3)C2)c(O)n1[C@@H](CC)c1ccccc1` (single isomer, unassigned) [Example 115] as the molecule, how does the pEC50 [3] read?
Answer: 8.00 to 11.00

Question: How did the pEC50 [1] turn out when `CCc1cccc(CC)c1-n1c(-c2nc(C)cs2)nc(=O)c(C(=O)N2CCC(c3ncc(Cl)cc3F)C2)c1O` (single isomer, unassigned) [Example 312, 5-[3-(5-chloro-3-fluoropyridin-2-yl)pyrrolidine-1-carbonyl]-1-(2,6-diethylphenyl)-6-hydroxy-2-(4-methyl-1,3-thiazol-2-yl)-1,4-dihydropyrimidin-4-one] was run?
Answer: 8.00 to 11.00

Question: How did the pEC50 [2] turn out when `CCCCc1nc(=O)c(C(=O)N2CCC(c3ccncc3)C2)c(O)n1-c1c(OC)cccc1OC` (single isomer, unassigned) [Example 48, 2-butyl-1-(2,6-dimethoxyphenyl)-6-hydroxy-5-[3-(pyridin-4-yl)pyrrolidine-1-carbonyl]-1,4-dihydropyrimidin-4-one] was run?
Answer: 8.00 to 11.00

Question: How did the pEC50 [3] turn out when `CCCCc1nc(=O)c(C(=O)N2CCC(c3ccccc3Cl)C2)c(O)n1-c1c(OC)cccc1OC` (single isomer, unassigned) [Example 43, 2-butyl-5-[3-(2-chlorophenyl)pyrrolidine-1-carbonyl]-1-(2,6-dimethoxyphenyl)-6-hydroxy-1,4-dihydropyrimidin-4-one] was run?
Answer: 8.00 to 11.00

Question: `COc1cccc(OC)c1-n1c(COC(C)C)nc(=O)c(C(=O)N2CCC(c3cccc(F)c3)C2)c1O` (single isomer, unassigned) [Example 97, 1-(2,6-dimethoxyphenyl)-5-[3-(3-fluorophenyl)pyrrolidine-1-carbonyl]-6-hydroxy-2-[(propan-2-yloxy)methyl]-1,4-dihydropyrimidin-4-one] was tested. Which pEC50 [3] did it give?
Answer: 8.00 to 11.00

Question: How did the pEC50 [4] turn out when `CCCCc1nc(=O)c(C(=O)N2CCN(Cc3cccc(F)c3F)CC2)c(O)n1-c1c(OC)cccc1OC` [Example 388, 2-butyl-5-(4-(2,3-difluorobenzyl)piperazine-1-carbonyl)-1-(2,6-dimethoxyphenyl)-6-hydroxypyrimidin-4(1H)-one] was run?
Answer: 8.00 to 11.00

Question: How did the pEC50 [4] turn out when `CCCCc1nc(=O)c(C(=O)N2CCC(Oc3ccc(Cl)cc3)CC2)c(O)n1-c1c(OC)cccc1OC` [Example 373, 2-butyl-5-(4-(4-chlorophenoxy)piperidine-1-carbonyl)-1-(2,6-dimethoxyphenyl)-6-hydroxypyrimidin-4(1H)-one] was run?
Answer: 8.00 to 11.00

Question: How did the pEC50 [3] turn out when `CC[C@@H](c1cc(F)cc(F)c1)n1c(-c2ccn(CC)n2)nc(=O)c(C(=O)N2CCC(c3ncccc3F)C2)c1O` (single isomer, unassigned) [Example 181] was run?
Answer: 8.00 to 11.00

Question: `CCCCc1nc(=O)c(C(=O)N2CC[C@@H](c3ccccc3)C2)c(O)n1[C@@H](C)C1CC1` [Example 131, 2-butyl-3-[(1S)-1-cyc1opropylethyl]-6-hydroxy-5-[(3S)-3-phenylpyrrolidine-1-carbonyl]-3,4-dihydropyrimidin-4-one] was tested. Which pEC50 [3] did it give?
Answer: 7.00 to 8.00

Question: With `CCCCc1nc(=O)c(C(=O)N2CCC(c3ccc(Cl)cc3)C2)c(O)n1-c1c(OC)cccc1OC` (single isomer, unassigned) [Example 45, 2-butyl-5-[3-(4-chlorophenyl)pyrrolidine-1-carbonyl]-1-(2,6-dimethoxyphenyl)-6-hydroxy-1,4-dihydropyrimidin-4-one] as the molecule, how does the pEC50 [2] read?
Answer: 8.00 to 11.00

Question: `CCn1ccc(-c2nc(=O)c(C(=O)N3CCC(c4ccccc4F)C3)c(O)n2-c2cccc(C(C)C)c2)n1` (single isomer, unassigned) [Example 294, 2-(1-ethyl-1H-pyrazol-3-yl)-5-[3-(2-fluorophenyl)pyrrolidine-1-carbonyl]-6-hydroxy-1-[3-(propan-2-yl)phenyl]-1,4-dihydropyrimidin-4-one] was tested. Which pEC50 [1] did it give?
Answer: 8.00 to 11.00

Question: How did the pEC50 [3] turn out when `CCCCc1nc(=O)c(C(=O)N2CCC(c3ccccc3F)C2)c(O)n1-c1c(OC)cccc1OC` (single isomer, unassigned) [Example 52, 2-butyl-1-(2,6-dimethoxyphenyl)-5-[3-(2-fluorophenyl)pyrrolidine-1-carbonyl]-6-hydroxy-1,4-dihydropyrimidin-4-one] was run?
Answer: 8.00 to 11.00

Question: How did the pEC50 [3] turn out when `CC[C@@H](c1cc(F)cc(F)c1)n1c(-c2nc(C)cs2)nc(=O)c(C(=O)N2CCC(c3ccccc3OC)C2)c1O` (single isomer, unassigned) [Example 207] was run?
Answer: 8.00 to 11.00

Question: How did the pEC50 [3] turn out when `COc1cccc(OC)c1-n1c(COC(C)(C)C)nc(=O)c(C(=O)N2CCC(c3ccccc3Cl)C2)c1O` (single isomer, unassigned) [Example 42, 2-[(tert-butoxy)methyl]-5-[3-(2-chlorophenyl)pyrrolidine-1-carbonyl]-1-(2,6-dimethoxyphenyl)-6-hydroxy-1,4-dihydropyrimidin-4-one] was run?
Answer: 8.00 to 11.00

Question: `CC[C@@H](c1cc(F)cc(F)c1)n1c(-c2ccn(C)n2)nc(=O)c(C(=O)N2CCC(c3ccc(F)cn3)C2)c1O` (single isomer, unassigned) [Example 199] was tested. Which pEC50 [3] did it give?
Answer: 8.00 to 11.00

Question: How did the pEC50 [1] turn out when `CCc1cccc(CC)c1-n1c(-c2ccn(C(C)C)n2)nc(=O)c(C(=O)N2CCC(c3ncccc3F)C2)c1O` (single isomer, unassigned) [Example 292, 1-(2,6-diethylphenyl)-5-[3-(3-fluoropyridin-2-yl)pyrrolidine-1-carbonyl]-6-hydroxy-2-[1-(propan-2-yl)-1H-pyrazol-3-yl]-1,4-dihydropyrimidin-4-one] was run?
Answer: 8.00 to 11.00

Question: `CC[C@@H](c1cc(F)cc(F)c1)n1c(-c2nc(C)cs2)nc(=O)c(C(=O)N2CCC(c3ccc(Cl)cn3)C2)c1O` (single isomer, unassigned) [Example 209] was tested. Which pEC50 [3] did it give?
Answer: 8.00 to 11.00

Source: patent publication US10590113B2, “6-hydroxy-4-oxo-1,4-dihydropyrimidine-5-carboxamides as APJ agonists” (priority 2016, dated 2020)
